From ChEMBL document CHEMBL1134303, “Systematic structure-based design and stereoselective synthesis of novel multisubstituted cyclopentane derivatives with potent antiinfluenza activity” (J Med Chem, 2001)
pIC50: −log10 of the molar value.

Target: Neuraminidase (Influenza A virus (A/Puerto Rico/8/1934(H1N1)), UniProt P03468)
Assay: Inhibitory activity against influenza A neuraminidase

Chain of Neuraminidase (Influenza A virus (A/Puerto Rico/8/1934(H1N1)), UniProt P03468) (P03468 whole entry): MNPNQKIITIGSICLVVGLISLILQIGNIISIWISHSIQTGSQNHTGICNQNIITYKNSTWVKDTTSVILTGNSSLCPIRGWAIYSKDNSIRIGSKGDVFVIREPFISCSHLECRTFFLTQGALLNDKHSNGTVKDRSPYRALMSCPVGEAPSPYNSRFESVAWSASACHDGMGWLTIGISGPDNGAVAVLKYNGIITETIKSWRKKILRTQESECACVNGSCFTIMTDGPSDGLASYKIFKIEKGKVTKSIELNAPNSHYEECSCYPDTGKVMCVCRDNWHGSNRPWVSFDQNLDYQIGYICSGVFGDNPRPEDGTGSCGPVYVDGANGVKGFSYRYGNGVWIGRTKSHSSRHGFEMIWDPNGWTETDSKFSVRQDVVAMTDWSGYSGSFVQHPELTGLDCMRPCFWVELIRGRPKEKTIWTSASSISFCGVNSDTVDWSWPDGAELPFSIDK

Structure (SMILES) | pIC50
CCC(CC)[C@H](NC(C)=O)[C@@H]1C[C@@H](C(=O)O)C[C@H]1N=C(N)N | > 9.00
CCC(CC)[C@H](NC(C)=O)[C@@H]1[C@H](O)[C@@H](C(=O)O)C[C@H]1NC(=N)N [PERAMIVIR ANHYDROUS] | > 9.00
